Reference: patent US20110171294A1, “Enzyme composition and application thereof in the treatment of pancreatic insufficiency” (DSM IP ASSETS B.V., priority 2008, published 2011)
Non-standard residues stand in square brackets, D forms with d. Residues, ends and D or L forms follow the SMILES beside them. *: point of attachment. Sta = CC(C)C[C@H](N)[C@@H](O)CC(=O)O; Isovaleryl = CC(C)CC(=O)*

Tests used:
[1] = test system: proline specific protease; assay: Effect of pepstatin on the proline specific protease; type: biochemical, Aspergillus niger; details: pepstatin 1.67 microgram/ml
Protocol: Prerequisite for a successful enzyme therapy according to the present application is an efficient degradation of dietary proteinaceous material in the stomach. […] Citrate/HCl buffers of 0.2 mol/l were used for obtaining the required acid pH conditions. […] Residual activities of the proline specific protease were measured kinetically at 405 nm using the synthetic substrates Ala-Ala-Pro-pNA (Bachem, Switzerland). […] Absorbance was measured kinetically for 10 min at 405 nm at 30° C. making use of a TECAN Genios MTP Reader (Salzburg, Vienna).

Sodium caseinate = assay: Casein hydrolysis under simulated stomach conditions (visual impression, di-/tripeptides, free amino acids); type: biochemical; details: 2.5 mg/ml caseinate suspension, pH 4.0, 37 degrees C., 0.25 mg/ml of each enzyme

Compound | inhibitory effect on the proline specific protease [1] | Visual impression after 45″ (Sodium caseinate) | Visual impression after 90″ (Sodium caseinate)
CC(C)CC(=O)N[C@H](C(=O)N[C@H](C(=O)N[C@@H](CC(C)C)[C@@H](O)CC(=O)N[C@@H](C)C(=O)N[C@@H](CC(C)C)[C@@H](O)CC(=O)O)C(C)C)C(C)C [pepstatin, Pepstatin] (Isovaleryl-VV[Sta]A[Sta]-OH) | no inhibitory effect | – | –
Pepsin: gastric aspartic endoprotease (EC 3.4.23.1) from porcine stomach mucosa, Sigma | – | turbid | clear
